In US20210161883A1, “EZH2 INHIBITOR-INDUCED GENE EXPRESSION” (Constellation Pharmaceuticals, Inc., priority 2017, published 2021):
Entries after “also recorded” stand apart in the source; their conditions may differ.

Assays:
[1] = system: global H3K27me3 levels in Karpas-422 GCB-DLBCL cells; assay: H3K27me3 western blotting in Karpas-422 cells treated with EZH2 inhibitors; assay type: cell-based, human; conditions: 1.5 μM, 4 days, vs DMSO, total H3 as control
Description: Lymphoma cell lines were grown in 10 ml cultures (as described in 2.1). […] After drug treatment, cells were centrifuged at 500×g for 3 min, supernatant was removed, and cell pellet was resuspended in 0.75 ml Trizol Reagent (Life Technologies, catalog #15596-026). RNA was extracted as per the manufacturer's protocol, resuspended in nuclease-free water, quantified using a NanoDrop 2000 UV-vis spectrophotometer (Thermo Scientific), and sent to Ocean Ridge Biosciences (http://www.oceanridgebio.com/) for RNA-sequencing. […]
In order to detect potential EZH2 inhibitor-mediated gene expression changes that could serve as a manifestation of target engagement, Karpas-422 GCB-DLBCL cells were treated with vehicle (dimethyl sulfoxide; DMSO) or Compound 1 for 4 days. […] The samples that were committed to RNA-sequencing were analyzed for changes in H3K27me3 levels by western blotting. […]

[2] = system: Karpas-422 GCB-DLBCL cells; assay: RNA-sequencing gene expression profiling of Karpas-422 cells; assay type: cell-based, human; conditions: 1.5 μM, 4 days
Description: Lymphoma cell lines were grown in 10 ml cultures (as described in 2.1). Cells were treated with 0.1% DMSO, 1.5 μM Compound 1 or in the presence of 1.5 μM other EZH2 inhibitors such as GSK126 and EPZ6438 for 4 days. After drug treatment, cells were centrifuged at 500×g for 3 min, supernatant was removed, and cell pellet was resuspended in 0.75 ml Trizol Reagent (Life Technologies, catalog #15596-026). RNA was extracted as per the manufacturer's protocol, resuspended in nuclease-free water, quantified using a NanoDrop 2000 UV-vis spectrophotometer (Thermo Scientific), and sent to Ocean Ridge Biosciences (http://www.oceanridgebio.com/) for RNA-sequencing. Cell samples were collected and total RNA was prepared (see 2.2). […] (2) 7 DLBCL cell lines treated for 4 days with GSK343 (generated in two separate experiments, with HT and SUDHL6 comprising the first experiments, the other 5 cell lines in a second experiment. For the HT and SUDHL6 cell samples in dataset 2, reads were aligned to the hg19 genome using bowtie version 0.12.9. The other datasets were aligned to the hg19 genome with Tophat 1.4.1 The aligned read files were sorted and duplicates removed using sort and rmdup functions from samtools version 0.1.182. See Li, H. et al. The Sequence Alignment/Map format and SAMtools. Bioinformatics 25, 2078-2079 (2009). […]

[3] = system: Karpas-422 cells; assay: Multiplexed QuantiGene assay of EZH2-controlled signature genes in Karpas-422 cells in vitro; assay type: cell-based, human; conditions: 1.5 μM, 4 days, vs DMSO
Description: The gene list described in Table 2 was submitted to Affymetrix, and a multiplexed QuantiGene® assay (https://www.ebioscience.com/application/gene-expression/quantigene-plex-assay.htm) probe set on the basis was generated specific to the human genome (see Appendix B). The primer and probe sequences used to generate the multiplex assay were not made available by the vendor.
In addition to validating the assay using a Karpas-422 mouse xenograft model, RNA from Karpas-422 cells treated with 1.5 μM Compound 1 for 4 days was also used. Samples were processed and quantitated as described above. […]
(§1) For each gene in each sample, the background median fluorescence intensity (MFI) value (recorded on the Luminex Magpix) was subtracted from the gene's measured MFI value. […]
(§2) Following regularization, the data from each well was processed independently by first generating a normalization factor by taking the geometric mean of regularized background-subtracted MFI values for 4 housekeeping genes (ACTB, POLR2A, PPIB, TBP). […] If more than 1 technical replicate was run for an individual sample, an average value was then calculated for each gene. These values were then converted to log 2 space, and log 2 fold change values were determined by subtracting vehicle/control values from treated values. […]

[4] = system: Karpas-422 xenograft; assay: Multiplexed QuantiGene assay of signature genes in Karpas-422 mouse xenograft tumors; assay type: in vivo
Description: (§3) FIGS. 4A and B illustrate a comparison of Compound 1-mediated H3K27me3 level and gene expression changes in phenotypically responsive Karpas-422 xenografts where (A) represents tumor samples (n=4) from a Karpas-422 mouse xenograft experiment in which mice were dosed twice daily, orally with vehicle, 100 or 200 mg/kg of Compound 1 for 4, 7, or 14 days, and were analyzed by ELISA assays to determine H3K27me3 levels; and (B) is the same tumor samples described in (A) (n=4), but were analyzed by a multiplexed QuantiGene® assay for the transcript levels of 50 genes, 4 of which were housekeeping.
For isolation of RNA from tissues: Tumor samples from a Karpas-422 mouse xenograft experiment in which mice were dosed BID with vehicle, 100 or 200 mpk Compound 1 for 4, 7, or 14 days, were obtained. Tumors were frozen in liquid nitrogen, then pulverized. A small aliquot of frozen, pulverized tissue was resuspended in 600 μl buffer RLT (Qiagen) containing 65 mM DTT, applied to a QIAShredder column (Qiagen), and centrifuged for 3 min at 20,000×g. […] RNA was eluted in nuclease-free water, and concentrations were normalized following quantitation on a NanoDrop 2000 UV-vis spectrophotometer.
Initial tests were performed to determine the linearity of the QuantiGene® Plex Set, followed by full validation of the assay showing time- and dose-dependent gene expression changes in a mouse xenograft treated with Compound 1. […] The QuantiGene® assay was performed as per the manufacturer's protocol, and quantitated on a Luminex Magpix. […]
as §1
Following regularization, the data from each well was processed independently by first generating a normalization factor by taking the geometric mean of regularized background-subtracted MFI values for 4 housekeeping genes (ACTB, POLR2A, PPIB, TBP). […] If more than 1 technical replicate was run for an individual sample, an average value was then calculated for each gene. […]

[5] = system: H3K27me3 levels in Karpas-422 xenografts; assay: H3K27me3 ELISA of Karpas-422 mouse xenograft tumor samples; assay type: in vivo; conditions: Karpas-422 xenograft, 100 or 200 mg/kg BID oral
Description: as §3

[6] = system: RL xenograft (EZH2 inhibitor-insensitive GCB-DLBCL cell line); assay: RL mouse xenograft tumor volume; assay type: in vivo; conditions: 200 mg/kg twice daily, 18 days
Description: (§4) To verify the gene signature as a readout of target engagement and not phenotypic responsive, an EZH2 inhibitor-insensitive GCB-DLBCL cell line, RL, was utilized in a mouse xenograft model. The RL xenograft bearing mice were treated twice daily with 200 mg/kg Compound 2 or vehicle control for 18 days. […] Tumors were harvested 6 hours post-last dose on day 18 of treatment and processed and analyzed using the QuantiGene® Plex assay, as described above.

[7] = system: RL xenograft; assay: Multiplexed QuantiGene assay of signature genes in RL mouse xenograft tumors; assay type: in vivo; conditions: 200 mg/kg twice daily, day 18, tumors harvested 6 hours post-last dose
Description: as §4, §1, §2
To determine the statistical significance of the engagement score, a phenotype permutation test was performed by randomly assigning the empirically determined expression values for each gene to the control or treated condition. […]

Structure (SMILES)	global H3K27me3 levels (western blotting) [1]	gene expression changes compared with those of other EZH2 inhibitors (GSK126, EPZ-6438) [2]	number of genes with significantly changed expression ([2]; vs DMSO, log 2 fold change >0.8, p<0.05)	signature gene expression (QuantiGene) [3]	signature gene expression in tumors vs vehicle-treated tumors ([4]; 100 or 200 mg/kg BID oral, 4, 7 and 14 days, tumors harvested 6 hours post last dose)	gene expression signature (aggregate gene score), treatment arms vs vehicle arms ([4]; 100 or 200 mg/kg BID oral, all three time points (4, 7, 14 days))	magnitude of signature gene expression changes in tumors compared with cells treated in vitro ([4]; 4 days, 100 mg/kg BID and 200 mg/kg BID, vs cells at 1.5 μM for 4 days)	H3K27me3 levels normalized to total histone H3 (ELISA) ([5]; 14 days, t-test p<0.05 vs vehicle)	H3K27me3 levels normalized to total histone H3 (ELISA) ([5]; earlier time points (4, 7 days))	tumor volume vs vehicle-treated mice [6]	gene signature score (QuantiGene) [7]
COc1cc(C)[nH]c(=O)c1CNC(=O)c1c(C)n([C@H](C)C2CCN(CC(F)(F)F)CC2)c2ccccc12 [Compound 1, (R)—N-((4-methoxy-6-methyl-2-oxo-1,2-dihydropyridin-3-yl)methyl)-2-methyl-1-(1-(1-(2,2,2-trifluoroethyl)piperidin-4-yl)ethyl)-1H-indole-3-carboxamide]	effectively reduced global H3K27me3 levels	remarkably similar	604 genes	significant increase and decrease of signature gene expression	significant induction of signature genes in a dose- and time-dependent manner; also recorded: significant alteration of signature genes; also recorded: significantly induced EZH2-target genes	robust and statistically significant change	did not show the same magnitude of signature gene expression changes	significant reduction in H3K27me3 levels	not statistically significant		
CCS(=O)(=O)N1CCC([C@@H](C)n2c(C)c(C(=O)NCc3c(OC)cc(C)[nH]c3=O)c3ccccc32)CC1 [Compound 2]										No reduction in tumor volume	statistically significant gene signature score
CCC(C)n1cc(C)c2c(C(=O)NCc3c(C)cc(C)[nH]c3=O)cc(-c3ccc(N4CCNCC4)nc3)cc21 (stereo not drawn) [GSK126, reference compound]	substantial loss of H3K27me3										
